As a reminder, the pIC50 is −log10 of the IC50, conventionally taken in molar units. Higher therefore signals a low IC50.

pIC50: −log10 of the molar value.

Chain of Human Factor XIIa (P00748 373-615): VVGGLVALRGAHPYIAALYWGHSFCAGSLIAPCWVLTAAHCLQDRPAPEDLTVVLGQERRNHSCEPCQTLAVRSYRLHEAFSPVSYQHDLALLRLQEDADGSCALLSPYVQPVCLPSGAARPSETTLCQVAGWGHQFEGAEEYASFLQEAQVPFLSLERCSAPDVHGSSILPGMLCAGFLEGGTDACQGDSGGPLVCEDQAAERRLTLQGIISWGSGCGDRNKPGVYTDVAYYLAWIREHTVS

The experiment concerns the target Human Factor XIIa (Homo sapiens (Human), UniProt P00748). Description: Determination of FXIIa inhibition (fluorogenic substrate H-DPro-Phe-Arg-AFC, IC50 assay). Conditions: substrate H-DPro-Phe-Arg-AFC at Km, 25° C.; class scale A-G. The format is biochemical. The protocol:
Determination of FXIIa Inhibition
In vitro inhibition of Factor XIIa was determined using an IC50 assay based on standard literature methods (see e.g Baeriswyl et al., ACS Chem. Biol., 2015, 10 (8) 1861; Bouckaert et al., European Journal of Medicinal Chemistry 110 (2016) 181). Human Factor XIIa (Enzyme Research Laboratories) was incubated at 25° C. with the fluorogenic substrate H-DPro-Phe-Arg-AFC (Peptide Protein Science) and various concentrations of the test compound. Protease activity was measured by monitoring the accumulation of liberated fluorescence from the substrate over 5 min at 25° C. The linear rate of fluorescence increase per minute was expressed as percentage (%) activity. The Km for the cleavage of the substrate by FXIIa was determined by standard transformation of the Michaelis-Menten equation. The compound inhibitor assays were performed at substrate Km concentration. IC50 values were calculated as the concentration of inhibitor giving 50% inhibition (IC50) of the uninhibited enzyme activity (100%).
In turn, `Nc1nccc2c(NCc3cnc(N4CCn5c(nnc5C(F)(F)F)C4)c(CO)c3)cccc12` [Example 1335, (5-(((1-aminoisoquinolin-5-yl)amino)methyl)-2-(3-(trifluoromethyl)-5,6-dihydro-[1,2,4]triazolo[4,3-a]pyrazin-7(8H)-yl)pyridin-3-yl)methanol] gave a pIC50 of 4.40 to 5.00.

The compound `CCc1nc(N2CCn3c(nnc3C(F)(F)F)C2)ccc1CNc1cccc2c(N)nccc12` [Example 1336, N5-((2-ethyl-6-(3-(trifluoromethyl)-5,6-dihydro-[1,2,4]triazolo[4,3-a]pyrazin-7(8H)-yl)pyridin-3-yl)methyl)isoquinoline-1,5-diamine] showed a negative logarithm of the IC50 (pIC50) of 6.00 to 6.52.

Compound `Nc1nccc2c(NS(=O)(=O)c3ccc(N4CCn5c(nnc5C(F)(F)F)C4)nc3)cccc12` [Example 1337, N-(1-aminoisoquinolin-5-yl)-6-(3-(trifluoromethyl)-5,6-dihydro-[1,2,4]triazolo[4,3-a]pyrazin-7(8H)-yl)pyridine-3-sulfonamide] had a pIC50 of 6.00 to 6.52.

As for `Cc1cc(N2CCn3c(nnc3C(F)(F)F)C2)ncc1CNc1ccnc2c1CCN2` [Example 1339, N-((4-methyl-6-(3-(trifluoromethyl)-5,6-dihydro-[1,2,4]triazolo[4,3-a]pyrazin-7(8H)-yl)pyridin-3-yl)methyl)-2,3-dihydro-1H-pyrrolo[2,3-b]pyridin-4-amine], the pIC50 was 4.40 to 5.00.

For `Cc1cc2c(NCc3cnc(N4CCn5c(nnc5C(F)(F)F)C4)cc3C)cncc2[nH]1` [Example 1341, 2-methyl-N-((4-methyl-6-(3-(trifluoromethyl)-5,6-dihydro-[1,2,4]triazolo[4,3-a]pyrazin-7(8H)-yl)pyridin-3-yl)methyl)-1H-pyrrolo[2,3-c]pyridin-4-amine], the pIC50 was 5.52 to 6.00.

The compound `Cc1cc(N2Cc3nnc(C(F)(F)F)n3C[C@H]2C)ncc1CNc1cccc2c(N)nccc12` [Example 1342, (R)-N5-((4-methyl-6-(6-methyl-3-(trifluoromethyl)-5,6-dihydro-[1,2,4]triazolo[4,3-a]pyrazin-7(8H)-yl)pyridin-3-yl)methyl)isoquinoline-1,5-diamine] showed a pIC50 of 7.00 to 8.00.

`CN1CCN(C(=O)Cc2ccc(CNc3ccc4c(N)nccc4c3)cc2)CC1` [Example 2179, 2-(4-{[(1-aminoisoquinolin-6-yl)amino]methyl}phenyl)-1-(4-methylpiperazin-1-yl)ethanone] gave a pIC50 of 5.52 to 6.00.

For the compound `CN1CCN(CCc2ccc(CNc3ccc4c(N)nccc4c3)cc2)CC1` [Example 2180, 6-N-({4-[2-(4-methylpiperazin-1-yl)ethyl]phenyl}methyl)isoquinoline-1,6-diamine], the pIC50 is 6.00 to 6.52.

As for `CC(=O)N1CCC(OCc2ccc(CNc3ccc4c(N)nccc4c3)c(F)c2)CC1` [Example 2200, 1-(4-((4-(((1-aminoisoquinolin-6-yl)amino)methyl)-3-fluorobenzyl)oxy)piperidin-1-yl)ethan-1-one], the negative-log IC50 (pIC50) was 6.00 to 6.52.

As for `CN1CCC(OCc2ccc(CN(C)c3cccc4c(N)nccc34)c(Cl)c2)CC1` [Example 2203, 5-N-[(2-chloro-4-{[(1-methylpiperidin-4-yl)oxy]methyl}phenyl)methyl]-5-N-methylisoquinoline-1,5-diamine], the pIC50 is 5.52 to 6.00.

`CN1CCC(OCc2ccc(CN(C)c3ccc4cnccc4c3)cc2)CC1` [Example 2204, N-methyl-N-[(4-{[(1-methylpiperidin-4-yl)oxy]methyl}phenyl)methyl]isoquinolin-6-amine]: the pIC50 is 6.00 to 6.52.

`CN1CCC(OCc2ccc(CNc3ccc4c(N)nccc4c3)c(F)c2)CC12COC2` (centres unmarked) [Example 2205, 6-N-({2-fluoro-4-[({5-methyl-2-oxa-5-azaspiro[3.5]nonan-8-yl}oxy)methyl]phenyl}methyl)isoquinoline-1,6-diamine] gave a pIC50 of 5.52 to 6.00.

Regarding `CN1CCC(OCc2ccc(S(=O)(=O)Nc3ccc4c(N)nccc4c3)cc2)CC1` [Example 2210, N-(1-aminoisoquinolin-6-yl)-4-(((1-methylpiperidin-4-yl)oxy)methyl)benzenesulfonamide], the pIC50 was 6.00 to 6.52.

`CN1CC2(CC(OCc3ccc(CNc4ccc5c(N)nccc5c4)c(F)c3)CS2)C1` (centres unmarked) [Example 2252, 6-N-({2-fluoro-4-[({2-methyl-5-thia-2-azaspiro[3.4]octan-7-yl}oxy)methyl]phenyl}methyl)isoquinoline-1,6-diamine] gave a pIC50 of 6.00 to 6.52.

In turn, `Nc1nccc2c(NCc3ccc(N4CCn5c(nnc5C(F)(F)F)C4)cc3F)cccc12` [Example 2256, N5-(2-Fluoro-4-(3-(trifluoromethyl)-5,6-dihydro-[1,2,4]triazolo[4,3-a]pyrazin-7(8H)-yl)benzyl)isoquinoline-1,5-diamine] showed a pIC50 of 7.00 to 8.00.

Take `Cc1cc(N2CCn3c(nnc3C(F)(F)F)C2)ccc1CNc1cccc2c(N)nccc12` [Example 2257, N5-(2-methyl-4-(3-(trifluoromethyl)-5,6-dihydro-[1,2,4]triazolo[4,3-a]pyrazin-7(8H)-yl)benzyl)isoquinoline-1,5-diamine]: the pIC50 was 6.52 to 7.00.

`CN1CCC(Cn2cc(CNc3ccc4c(N)nccc4c3)cn2)CC1` [Example 3253, N6-((1-((1-methylpiperidin-4-yl)methyl)-1H-pyrazol-4-yl)methyl)isoquinoline-1,6-diamine] gave a pIC50 of 5.52 to 6.00.

`CN1CCC(CCn2cc(CNc3cccc4c(N)nccc34)cn2)CC1` [Example 3255, N5-((1-(2-(1-methylpiperidin-4-yl)ethyl)-1H-pyrazol-4-yl)methyl)isoquinoline-1,5-diamine] had a pIC50 of 6.00 to 6.52.

Compound `CN1CCC(COc2cc(CNc3ccc4c(N)ncnc4c3)ccn2)CC1` [Example 4263, 7-N-({2-[(1-methylpiperidin-4-yl)methoxy]pyridin-4-yl}methyl)quinazoline-4,7-diamine] had a pIC50 of 4.40 to 5.00.

Turning to `CN1CCC(COc2cc(CNc3cnc4[nH]cc(Cl)c4c3)ccn2)CC1` [Example 4264, 3-chloro-N-((2-((1-methylpiperidin-4-yl)methoxy)pyridin-4-yl)methyl)-1H-pyrrolo[2,3-b]pyridin-5-amine], the pIC50 was 4.40 to 5.00.

For `Nc1nccc2cc(NCc3ccnc(OCC4CCn5cc(C(F)(F)F)nc5C4)c3)ccc12` (centres unmarked) [Example 4266, 6-N-[(2-{[2-(trifluoromethyl)-5H,6H,7H,8H-imidazo[1,2-a]pyridin-7-yl]methoxy}pyridin-4-yl)methyl]isoquinoline-1,6-diamine], the pIC50 is 5.52 to 6.00.

With `Nc1nccc2cc(NCc3cccc(CN4CCCC4)c3)ccc12` [Example 4287, 6-N-{[3-(pyrrolidin-1-ylmethyl)phenyl]methyl}isoquinoline-1,6-diamine], the pIC50 is 4.40 to 5.00.

`CN1CCN(CCc2cccc(CNc3ccc4c(N)nccc4c3)c2)CC1` [Example 4288, 6-N-({3-[2-(4-methylpiperazin-1-yl)ethyl]phenyl}methyl)isoquinoline-1,6-diamine] showed a pIC50 of 5.00 to 5.52.

As for `CC(C)N1CCC(OCc2cc(CNc3ccc4c(N)ncc(Cl)c4c3)ccn2)CC1` [Example 4296, 4-chloro-6-N-[(2-{[(1-isopropylpiperidin-4-yl)oxy]methyl}pyridin-4-yl)methyl]isoquinoline-1,6-diamine], the pIC50 was 5.52 to 6.00.

In turn, `Nc1nccc2cc(NCc3ccnc(OCC4CCn5ccnc5C4)c3)ccc12` (centres unmarked) [Example 4408, N6-((2-((5,6,7,8-tetrahydroimidazo[1,2-a]pyridin-7-yl)methoxy)pyridin-4-yl)methyl)isoquinoline-1,6-diamine] had a pIC50 of 6.52 to 7.00.

`CN1CCC(CCc2cc(CNc3ccc4c(N)nccc4c3)ccn2)CC1` [Example 4409, 6-N-({2-[2-(1-methylpiperidin-4-yl)ethyl]pyridin-4-yl}methyl)isoquinoline-1,6-diamine] gave a pIC50 of 6.00 to 6.52.

In turn, `CN1CCC(CCc2cccc(CNc3ccc4c(N)nccc4c3)c2)CC1` [Example 4410, 6-N-({3-[2-(1-methylpiperidin-4-yl)ethyl]phenyl}methyl)isoquinoline-1,6-diamine] had a pIC50 of 6.00 to 6.52.

Turning to `Nc1nccc2cc(NCc3ccnc(OCC4CCn5cnnc5C4)c3)ccc12` (centres unmarked) [Example 4411, 6-N-[(2-{5H,6H,7H,8H-[1,2,4]triazolo[4,3-a]pyridin-7-ylmethoxy}pyridin-4-yl)methyl]isoquinoline-1,6-diamine], the pIC50 is 6.00 to 6.52.

The compound `Cc1nnc2n1CCC(COc1cc(CNc3ccc4c(N)nccc4c3)ccn1)C2` (centres unmarked) [Example 4413, 6-N-{[2-({3-methyl-5H,6H,7H,8H-[1,2,4]triazolo[4,3-a]pyridin-7-yl}methoxy)pyridin-4-yl]methyl}isoquinoline-1,6-diamine] showed a pIC50 of 5.52 to 6.00.

`CC(Oc1cc(CNc2ccc3c(N)nccc3c2)ccn1)C1CCN(C)CC1` (centres unmarked) [Example 4414, 6-N-({2-[1-(1-methylpiperidin-4-yl)ethoxy]pyridin-4-yl}methyl)isoquinoline-1,6-diamine] had a pIC50 of 6.52 to 7.00.

`CN1CCC(F)(COc2cc(CNc3ccc4c(N)nccc4c3)ccn2)CC1` [Example 4415, 6-N-({2-[(4-fluoro-1-methylpiperidin-4-yl)methoxy]pyridin-4-yl}methyl)isoquinoline-1,6-diamine] gave a pIC50 of 6.00 to 6.52.

`CN1CCC(COc2cc(CNc3ccc4c(N)nccc4c3)ccn2)CC1=O` (centres unmarked) [Example 4416, 4-{[(4-{[(1-aminoisoquinolin-6-yl)amino]methyl}pyridin-2-yl)oxy]methyl}-1-methylpiperidin-2-one] had a pIC50 of 6.00 to 6.52.

The values above are taken from patent US20240059691A1 (KALVISTA PHARMACEUTICALS LIMITED, priority 2020, published 2024).
